These results are taken from patent US20020102230A1, “Method for inactivating pathogens” (priority 2000, published 2002).

≈ marks a conversion by molar mass, not a printed value.

Series [1] deals with IIIB strain of HIV. The note with it: virus adsorption interval of 1 h; cited from earlier work.
Series [2] relates to HIV-1 (RF). It is filed as cell-based. The note with it: 6 days, MTS, control, row printed in μM, read-out: Ic50, activity against HIV-1 in CEM-SS cells. As to the method: (§1) CEM-SS cells (obtained from the AIDS Research and Reference Reagent Repository, Bethesda, Md.) are passaged in T-75 flasks in tissue culture media (RP 1640 medium (no phenol red) with 10% Fetal Bovine Serum (heat inactivated), 2 mM L-glutamine, 100 U/mL penicillin, 100 μg/mL streptomycin, and 10 μg/mL gentamycin). On the day preceding the assay, the cells are split 1:2. On the day of assay the cells are collected by centrifugation, washed twice with tissue culture medium and resuspended in fresh tissue culture medium. Total cell and viability counting is performed using a hemacytometer. Cell viability prior to the assay is determined by Trypan Blue dye exclusion and must exceed 95%. A pretitered aliquot of HIV-1 RF (AIDS Research and Reference Reagent Repository, Bethesda, Md.), CEM-SS cells and compound are placed into microtiter plates. Each plate contains cell control wells (cells only), virus control wells (cell plus virus), drug toxicity control wells (cells plus drugs only), drug calorimetric control wells (drugs only) as well as experimental wells (drug plus cells plus virus) . Cultures are incubated for 6 days at 37° C., 5% CO2 and antiviral activity and compound toxicity determined by MTS staining.

Series [3] deals with CEM-SS cells. How it is done: as §1
Series [4] is described as follows: Drug cytotoxicity in Vero cells (MTS), HSV-1 assay. It counts as cell-based. The note with it: African green monkey. From the text:
(§2) A virus induced cytopathic effects (CPE) inhibition assay procedure using Promega's cell titer aqueous one solution (MTS, metabolic dye similar to XTT) is employed to evaluate compounds for antiviral activity against herpes simplex virus type 1 (HSV-1) strain HF in Vero cells. Vero cells are pregrown in 96 well tissue culture plates using Dulbecco's modified eagle's media (DMEM) supplemented with 10% heat inactivated fetal bovine serum (FBS), L-glutamine, penicillin and streptomycin. Antiviral assays are designed to test six half log dilution of each compound in triplicate against the challenge virus in microtiter plate wells containing host cell monolayers. To each of the replicate cell cultures is added 50 uL of the test drug solution and 50 uL of virus suspension. Cell control containing medium alone, virus infected controls containing medium and virus, drug cytotoxicity controls containing medium and each drug concentration, reagent controls containing culture medium only (no cells), and drug calorimetric controls containing drug and medium (no cells) are run simultaneously with the test samples. The plates are incubated at 37° C. in a humidified atmosphere containing 5% CO2 until maximum CPE is observed in the untreated virus control cultures (day 5). CPE inhibition is determined by the dye (MTS) uptake procedure. […]

Series [5] deals with herpes simplex virus type 1 (HSV-1) strain HF. Briefly: Virus induced cytopathic effects (CPE) inhibition assay in Vero cells (MTS). It counts as cell-based. To be noted: Human alphaherpesvirus 1, Vero, read-out: Ic50 against HSV-1 virus.
Excerpt: as §2
(Cytopathic effects are the visible damage that an infection or toxin causes in cultured cells.)

In series [6] the test system is IIIB strain of HIV. Briefly: Virus attachment assay (HeLa CD4 LTR β-gal cells). It counts as cell-based. The note with it: Human immunodeficiency virus 1, 1 h adsorption. How it is done: (§3) This assay is designed to detect compounds that interact with the cell and block virus attachment, and/or compounds that interact with the forming attachment/fusion complex. The attachment assay is performed with HeLa CD4 LTR β-gal cells. HeLa CD4 LTR β-gal cells are routinely cultured with the required selection antibiotics. Twenty-four hours prior to initiation of the assay the cells are trypsinized, counted, and 1×10^4 cells placed in a 0.2 cm well in media without selection antibiotics. At 24 h media is removed and compound in media placed on the cells and incubated for 15 min at 37° C. […] At the end of the incubation, the wells are washed 3 times with media and the culture continued for 40 to 48 h. At termination of the assay, media is removed and β-galactosidase enzyme expression determined by chemiluminescence per manufacturer instructions (Tropix Gal-screen™, Bedford Mass.) by a single step chemiluminescent method using a single solution to lyse the cells and detect β-galactosidase enzyme activity. Compound toxicity is monitored on a sister plate by XTT dye reduction. All determinations are performed in triplicate with serial ½ Log10 dilution of the test materials.

Series [7] deals with HeLa CD4 LTR β-gal cells. Put plainly: Compound toxicity (XTT, sister plate) in the fusion assay. It counts as cell-based. As to the method:
The fusion assay assesses the ability of compounds to block cell-to-cell fusion mediated by HIV-1 Env and CD4 expressed on separate cells. This assay is sensitive to inhibitors of both the gp120/CD4 interaction and inhibitors of the X4 coreceptor. First, 5×10^3 HeLa CD4 LTR β-gal cells are placed in microtiter wells and incubated overnight. The following day the media is removed and the HeLa CD4 LTR β-gal cells are incubated for 1 h at 37° C. in fresh media with test compound. Following the incubation 5×10^3 HL2/3 cells are added and the incubation continued for 40 to 48 h. At 40 to 48 h β-galactosidase enzyme expression is detected by chemiluminescence (Tropix Gal-screen™, Tropix, Bedford, Mass.). Compound toxicity is monitored on a sister plate using XTT dye reduction. All determinations are performed in triplicate with serial ½ Log10 dilution of the test materials.
A general note: Formazan colour is commonly taken as a measure of viable cells.

The test system of series [8] is HeLa CD4 LTR β-gal cells. Put plainly: Compound toxicity (XTT, sister plate) in the virus attachment assay. It is filed as cell-based. How it is done: as §3
The test system of series [9] is vaginal/cervical epithelial and other cells. The note with it: concentrations as low as; cited from earlier work.

The term IC50 denotes the concentration that gives 50% inhibition. In general, CC50 refers to the concentration giving 50% cytotoxicity.

As to `Cc1cn([C@H]2C[C@H](N=[N+]=[N-])[C@@H](CO)O2)c(=O)[nH]c1=O` [AZT], the “Activity in the virus attachment assay (in words)” value in series [1] is on record as “not active”. In addition, the IC50 in series [2] was determined as 0.005 µM. In addition, the CC50 in series [3] is above 1 µM.
In series [4], `Nc1nc2c(ncn2COCCO)c(=O)[nH]1` [Acyclovir] registered a CC50 at 5 day above 10 mg/L. In addition, the IC50 in series [5] worked out at 2.7 µM.
For `COc1cc(-c2ccc(/N=N/c3ccc4c(S(=O)(=O)O)cc(S(=O)(=O)O)c(N)c4c3O)c(OC)c2)ccc1/N=N/c1ccc2c(S(=O)(=O)O)cc(S(=O)(=O)O)c(N)c2c1O` [Chicago Sky Blue], inhibition in series [6] was half-maximal at 0.32 mg/L (≈ 0.354 µM) (IC50). Further, in series [7], the “Fusion Assay TC50” value was above 10 mg/L. In addition, in series [8], the “Attachment Assay TC50” value is above 10 mg/L.
As for Nonoxynol-9, in [9], the “Concentration that can injure vaginal/cervical epithelial and other cells” value is given as “about 0.0005%”.
